Measurements as given in patent publication US20110105393A1, “METHODS FOR PROMOTING STEM CELL PROLIFERATION AND SURVIVAL” (priority 2007, published 2011).

Tests used:
blood vessels (RECA-1) = experiment: Blood vessel number and size in striatum (RECA-1 staining) after 6OHDA lesion and treatment; conditions: for number and size of blood vessels in the striatum: 13 weeks after a single treatment, pattern recognition software; for blood vessel numbers or size (undesirable effects, summary): rat, in vivo
Protocol: Blood vessel counting and area quantitation: Zeiss software was used to identify, count, and measure blood vessels stained for the pan-endothelial marker RECA-1. To measure the average distance between adjacent Hes3+ cells along the same blood vessel, 25 high-power (×63) confocal z-stack images were used from brain sections stained for endothelial markers and Hes3.
6OHDA Lesion. Some animals underwent unilateral lesion of the nigrostriatal dopamine pathway by stereotactical injection of 50 μg 6-hydroxydopamine (6-OHDA) into the right striatum, using the following coordinates: bregma AP +0.5 mm, ML −3.0 mm, VD +5.5 mm.
Pharmacological treatments. Unlesioned animals, or animals two weeks after 6-OHDA lesion, were treated with different pharmacologic agents. Five microliters (μl) of different drugs were stereotactically injected into the right lateral ventricle using the following stereotaxic coordinates: bregma AP −0.9 mm, ML −1.4 mm, VD +3.8 mm. The following reagents were used: Dll4 (2 mg/ml), Ang-2 (1 mg/ml), insulin (8 mg/ml), Jak-Inhibitor (20 μM), either alone or in combination.
In vivo Experiments: Male adult (3-6 months) Sprague Dawley rats (Charles River Laboratories), weighing 250-350 gm, was used for pharmacological treatments and lesion experiments. For 6OHDA Lesion: animals underwent unilateral lesion of the nigrostriatal dopamine pathway by stereotactical injection of 50 μg 6-hydroxydopamine (6-OHDA) into the right striatum, using the following coordinates: bregma AP +0.5 mm, ML −3.0 mm, VD +5.5 mm. For pharmacological treatments: unlesioned animals, or animals two weeks after 6OHDA lesion, were treated with different pharmacologic agents. Five μl of different drugs were stereotactically injected into the right lateral ventricle using the following stereotaxic coordinates: bregma AP −0.9 mm, ML −1.4 mm, VD +3.8 mm. The following reagents were used: Dll4 (2 mg/ml), Ang2 (1 mg/ml), insulin (8 mg/ml), Jak-Inhibitor (20 μM), either alone or in combination. After all surgeries, animals were allowed to recover from the anesthesia and were put back into their home cages, where they were given access to food and water ad libitum. For labeling of dividing cells: Animals received intraperitoneal injection of the tracer bromodeoxyuridine (BrdU) (50 mg/kg) every 12 hours for 5 days beginning on day 1 post-op to label dividing cells. Amphetamine induced rotations: At multiple time points over the course of the experiment, lesioned rats were injected intra-peritoneally with D-Amphetamine sulfate (5 mg/kg) and placed in automated rotometer bowls. Rotational behavior was assessed by monitoring total number of whole body (360°) turns over 60 min.

[1] = system: proliferating (BrdU+) cells; experiment: BrdU+ proliferating cells after single intra-ventricular injection; type: in vivo, rat; conditions: BrdU days 2-4, sacrifice day 5
Protocol: (§1) Pharmacological treatments.
(§2) Immunohistochemistry: Under deep anesthesia, animals were perfused transcardially with a rinse of saline, followed by 4% formaldehyde fixative (pH 7.4). Brains were removed immediately, stored in the fixative solution overnight and then in 30% sucrose for 3 days. Brains were frozen-sectioned at 16 μm. Immunohistochemical detection of BrdU and Hes3 was performed with an antigen-retrieval step (sections were boiled in 0.02M citrate, pH 6.0 in a microwave for 5 min, washed 3 times with distilled water, and incubated for 45 min in 2M HCl, at room temperature).
(§3) Hes3+ cells in the central nervous system (CNS) parenchyma were characterized and the means to activate the NSC compartment in vivo was investigated. Single injections of pharmacologically active compounds were performed in the lateral ventricle, bromodeoxyuridine (BrdU) was administered intraperitoneally (days 2-4) and the animals were sacrificed on day 5. At the subventricular zone (SVZ), a single intra-ventricular injection of Dll4 induced STAT3-S727 phosphorylation and Hes3 expression within 5 days. […] BrdU+ cell numbers were elevated in all these areas (FIG. 3a).

[2] = system: dopamine neurons in the substantia nigra; experiment: Fluorogold retrograde labelling of dopamine neurons in the substantia nigra, 6OHDA model; type: in vivo, rat; conditions: for neuroprotective effects on neurons: summary of in vivo treatments; for cell body diameter of TH+/Fluorogold+ cells in the substantia nigra: treatment 2-weeks following 6OHDA lesion, ipsilateral (FIG. 6e)
Protocol: as §1
To investigate the clinical potential of this treatment approach, the compounds were used in an animal model of Parkinson's disease. Adult rats were lesioned by intra-striatal 6-OH-DA (Przedborski, S. et al., Neuroscience 67, 631-47, 1995). After two weeks, a single injection of the compounds was administered in the lateral ventricle ipsilateral to the lesion. Amphetamine-induced rotations were measured bi-weekly throughout the experiment. Thirteen weeks after treatment they were given a single injection of fluorogold in the striatum to label the […] dopaminergic projection.

NSC cultures = experiment: Incidence of Tie-2 spikes in NSC cultures; type: cell-based; conditions: for % of cells with at least one spike: NSC cultures; for spike number: thirty minutes after treatment
Protocol: A protrusion of the cell membrane was identified in neuronal stem cells (NSCs) when the Tie-2 receptor is concentrated. This can be visualized using antibodies that bind Tie-2. The protrusion was termed a spike. These spikes appear 30 minutes after treatment with pharmaceutical agents. […] increase spike number thirty minutes after treatment. […] Thus, a novel sub-cellular structure ahs been identified. These structures could regulate the responsiveness of cells to treatments.
Thus, a novel protrusion of the cell membrane in NSCs has been identified where the Tie-2 receptor is concentrated. This can be easily visualized using an antibody against Tie-2 that recognizes a particular epitope. […] Indeed, the spike is devoid of actin filaments or tubulin. The spikes can be detected within thirty minutes of contacting the cultures with an the factors. Thus, the spikes provide a rapid assay for the effect of pharmacologic agents.

Hes3+ cells = Hes3+ cells after single intra-ventricular injection; type: in vivo, rat; conditions: for number of Hes3+ cells in the adult striatum and substantia nigra: single intracerebroventricular injection, within 5 days (FIG. 11); for number of stem cells/precursors in the adult brain: summary of in vivo treatments
Protocol: as §1, §2, §3
Immunohistochemistry: Under deep anesthesia, animals were perfused transcardially with a rinse of saline, followed by 4% formaldehyde fixative (pH 7.4). Brains were removed immediately, stored in the fixative solution overnight and then in 30% sucrose for 3 days. Brains were frozen-sectioned at 16 μm. Immunohistochemical detection of BrdU and Hes3 was performed with an antigen-retrieval step (Sections were boiled in 0.02M citrate, pH 6.0 in a microwave for 5 minutes, washed 3 times with distilled water, and incubated for 45 min in 2M HCl, at room temperature).

[3] = 6OHDA lesioned, striatum, RECA-1 (FIG. 5c)

Row | Substance | number of vessels (blood vessels (RECA-1); [3]) | number and size of blood vessels in the striatum (blood vessels (RECA-1)) | blood vessel numbers or size (undesirable effects, summary) (blood vessels (RECA-1)) | number of proliferating cells in the SVZ [1] | neuroprotective effects on neurons [2] | cell body diameter of TH+/Fluorogold+ cells in the substantia nigra [2] | % of cells with at least one spike (NSC cultures) [%] | spike number (NSC cultures) | number of Hes3+ cells in the adult striatum and substantia nigra (Hes3+ cells) | number of stem cells/precursors in the adult brain (Hes3+ cells) | diameter of the vessels (blood vessels (RECA-1); [3]) | STAT3-S727 phosphorylation and Hes3 expression at the subventricular zone (Hes3+ cells; single intra-ventricular injection, within 5 days) | numbers of Hes3+ and Tie-2+ precursor cells in the SVZ (Hes3+ cells; single ventricular injection) | effect on the vasculature (striatum, RECA-1) (blood vessels (RECA-1); 6OHDA lesioned, end of experiment (FIG. 5c))
1 | Ang-2: human angiopoietin-2 (623-AN) from R&D; antagonist for angiopoietin-1 at Tie2 | significantly increased | opposing and long-lasting effects | increases the number and size of blood vessels | increased | exert neuroprotective effects | increase | 2.5 | increase | increased | increase | – | – | – | –
2 | Dll4: Notch ligand Delta-like 4; mouse Dll4 (1389-D4) from R&D | – | opposing and long-lasting effects | reduces the number and size of blood vessels | increased | exert neuroprotective effects | – | 2.1 | increase | increased | increase | significantly decreased | induced | rapidly increased | –
3 | insulin: insulin (Sigma, 19278), growth factor | – | – | increases the number of blood vessels adjacent to the injection site | increased | exert neuroprotective effects | increase | – | – | – | increase | – | – | – | relatively small effect
